Reference: US10544143B2, “4-azaindole compounds” (BRISTOL-MYERS SQUIBB COMPANY, priority 2017, dated 2020)

Assays:
human TLR7 = human TLR7 (Homo sapiens (Human), UniProt Q9NYK1); assay: TLR7 inhibition reporter assay (HEK-Blue SEAP); type: cell-based; details: HEK-Blue cells overexpressing human TLR7, SEAP reporter, gardiquimod 7.5 μM
human TLR8 = human TLR8 (Homo sapiens (Human), UniProt Q9NR97); assay: TLR8 inhibition reporter assay (HEK-Blue SEAP); details: read-out: TLR8 IC50; HEK-Blue cells overexpressing human TLR8, SEAP reporter, R848 15.9 μM;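 further: SEAP driven by IFN-β minimal promoter carrying NF-κB and AP-1 sites, compounds dosed 0.05 nM to 50 µM for 22 h, inhibition scaled between agonist-plus-DMSO and reference-inhibitor wells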
Protocol: HEK-Blue™-cells (Invivogen) overexpressing human TLR7, TLR8 or TLR9 receptors were used for screening inhibitors of these receptors using an inducible SEAP (secreted embryonic alkaline phosphatase) reporter gene under the control of the IFN-β minimal promoter fused to five NF-κB and AP-1-binding sites. Briefly, cells are seeded into Greiner 384 well plates (15000 cells per well for TLR7, 20,000 for TLR8 and 25,000 for TLR9) and then treated with test compounds in DMSO to yield a final dose response concentration range of 0.05 nM-50 μM. After a 30 minute compound pre-treatment at room temperature, the cells are then stimulated with a TLR7 ligand (gardiquimod at a final concentration of 7.5 μM), TLR8 ligand (R848 at a final concentration of 15.9 μM) or TLR9 ligand (ODN2006 at a final concentration of 5 nM) to activate NF-κB and AP-1 which induce the production of SEAP. After a 22 hour incubation at 37° C., 5% CO2, SEAP levels are determined with the addition of HEK-Blue™ Detection reagent (Invivogen), a cell culture medium that allows for detection of SEAP, according to manufacturer's specifications.

human TLR9 = human TLR9 (Homo sapiens (Human), UniProt Q9NR96); assay: TLR9 inhibition reporter assay (HEK-Blue SEAP); details: read-out: TLR9 IC50; HEK-Blue cells overexpressing human TLR9, SEAP reporter, ODN2006 5 nM;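 further: SEAP driven by an IFN-β minimal promoter with NF-κB and AP-1 sites, read after 22 h, compounds dosed 0.05 nM–50 µM, inhibition scaled between agonist plus DMSO and reference-inhibitor wells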
Sequence of human TLR9 (Q9NR96 26-1032): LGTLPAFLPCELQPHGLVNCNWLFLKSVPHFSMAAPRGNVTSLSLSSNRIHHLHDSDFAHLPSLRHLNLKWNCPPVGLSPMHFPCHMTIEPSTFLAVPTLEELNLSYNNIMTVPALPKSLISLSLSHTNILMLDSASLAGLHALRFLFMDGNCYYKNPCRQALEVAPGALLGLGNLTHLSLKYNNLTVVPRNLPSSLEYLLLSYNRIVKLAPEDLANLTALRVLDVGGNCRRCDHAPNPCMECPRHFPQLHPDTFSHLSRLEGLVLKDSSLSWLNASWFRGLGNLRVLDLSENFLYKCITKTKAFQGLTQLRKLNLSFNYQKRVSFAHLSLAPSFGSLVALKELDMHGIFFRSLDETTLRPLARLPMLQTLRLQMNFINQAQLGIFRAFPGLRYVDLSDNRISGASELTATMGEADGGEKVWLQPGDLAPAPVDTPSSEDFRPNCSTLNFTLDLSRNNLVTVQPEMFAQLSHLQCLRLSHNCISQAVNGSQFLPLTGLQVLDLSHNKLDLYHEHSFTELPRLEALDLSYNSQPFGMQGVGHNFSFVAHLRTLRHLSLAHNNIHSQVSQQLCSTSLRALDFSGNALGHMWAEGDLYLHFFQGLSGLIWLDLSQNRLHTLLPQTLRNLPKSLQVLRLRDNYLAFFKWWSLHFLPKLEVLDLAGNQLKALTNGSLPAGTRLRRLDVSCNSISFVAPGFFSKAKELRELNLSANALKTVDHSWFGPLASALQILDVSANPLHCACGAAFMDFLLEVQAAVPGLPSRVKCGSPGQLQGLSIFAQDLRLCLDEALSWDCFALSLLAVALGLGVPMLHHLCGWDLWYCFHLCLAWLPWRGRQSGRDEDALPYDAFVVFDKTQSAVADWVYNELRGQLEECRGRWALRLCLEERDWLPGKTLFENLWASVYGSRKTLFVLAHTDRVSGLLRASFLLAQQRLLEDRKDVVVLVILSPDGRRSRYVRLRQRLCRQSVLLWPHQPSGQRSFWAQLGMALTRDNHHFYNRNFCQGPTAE

Sequence of human TLR7 (Q9NYK1 27-1049): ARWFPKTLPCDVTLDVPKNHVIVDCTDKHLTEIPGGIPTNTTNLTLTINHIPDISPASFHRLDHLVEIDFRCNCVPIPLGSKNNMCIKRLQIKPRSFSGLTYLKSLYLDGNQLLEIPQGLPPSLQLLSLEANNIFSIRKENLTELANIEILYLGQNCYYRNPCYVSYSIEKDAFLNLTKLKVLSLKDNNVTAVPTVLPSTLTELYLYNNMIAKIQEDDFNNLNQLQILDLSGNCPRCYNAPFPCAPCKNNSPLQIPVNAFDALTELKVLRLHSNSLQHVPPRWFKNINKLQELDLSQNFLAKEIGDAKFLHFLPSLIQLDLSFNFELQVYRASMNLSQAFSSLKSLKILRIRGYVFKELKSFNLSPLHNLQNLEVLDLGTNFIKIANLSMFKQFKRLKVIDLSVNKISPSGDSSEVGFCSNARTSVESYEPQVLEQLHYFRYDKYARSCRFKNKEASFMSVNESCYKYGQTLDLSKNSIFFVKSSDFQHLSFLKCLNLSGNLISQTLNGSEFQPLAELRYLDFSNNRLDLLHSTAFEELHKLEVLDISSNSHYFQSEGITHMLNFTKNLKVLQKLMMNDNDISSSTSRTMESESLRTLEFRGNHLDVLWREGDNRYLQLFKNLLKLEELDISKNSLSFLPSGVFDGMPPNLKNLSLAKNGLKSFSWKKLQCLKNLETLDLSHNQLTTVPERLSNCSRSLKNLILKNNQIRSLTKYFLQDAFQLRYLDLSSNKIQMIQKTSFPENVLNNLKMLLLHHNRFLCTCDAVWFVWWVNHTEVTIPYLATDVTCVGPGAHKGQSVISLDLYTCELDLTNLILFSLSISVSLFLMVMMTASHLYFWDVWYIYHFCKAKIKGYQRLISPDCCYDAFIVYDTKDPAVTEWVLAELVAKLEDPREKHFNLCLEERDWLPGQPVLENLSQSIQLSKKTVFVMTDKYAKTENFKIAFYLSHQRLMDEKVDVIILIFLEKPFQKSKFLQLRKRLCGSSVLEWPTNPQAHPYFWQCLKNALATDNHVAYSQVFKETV
Sequence of human TLR8 (Q9NR97 27-1041): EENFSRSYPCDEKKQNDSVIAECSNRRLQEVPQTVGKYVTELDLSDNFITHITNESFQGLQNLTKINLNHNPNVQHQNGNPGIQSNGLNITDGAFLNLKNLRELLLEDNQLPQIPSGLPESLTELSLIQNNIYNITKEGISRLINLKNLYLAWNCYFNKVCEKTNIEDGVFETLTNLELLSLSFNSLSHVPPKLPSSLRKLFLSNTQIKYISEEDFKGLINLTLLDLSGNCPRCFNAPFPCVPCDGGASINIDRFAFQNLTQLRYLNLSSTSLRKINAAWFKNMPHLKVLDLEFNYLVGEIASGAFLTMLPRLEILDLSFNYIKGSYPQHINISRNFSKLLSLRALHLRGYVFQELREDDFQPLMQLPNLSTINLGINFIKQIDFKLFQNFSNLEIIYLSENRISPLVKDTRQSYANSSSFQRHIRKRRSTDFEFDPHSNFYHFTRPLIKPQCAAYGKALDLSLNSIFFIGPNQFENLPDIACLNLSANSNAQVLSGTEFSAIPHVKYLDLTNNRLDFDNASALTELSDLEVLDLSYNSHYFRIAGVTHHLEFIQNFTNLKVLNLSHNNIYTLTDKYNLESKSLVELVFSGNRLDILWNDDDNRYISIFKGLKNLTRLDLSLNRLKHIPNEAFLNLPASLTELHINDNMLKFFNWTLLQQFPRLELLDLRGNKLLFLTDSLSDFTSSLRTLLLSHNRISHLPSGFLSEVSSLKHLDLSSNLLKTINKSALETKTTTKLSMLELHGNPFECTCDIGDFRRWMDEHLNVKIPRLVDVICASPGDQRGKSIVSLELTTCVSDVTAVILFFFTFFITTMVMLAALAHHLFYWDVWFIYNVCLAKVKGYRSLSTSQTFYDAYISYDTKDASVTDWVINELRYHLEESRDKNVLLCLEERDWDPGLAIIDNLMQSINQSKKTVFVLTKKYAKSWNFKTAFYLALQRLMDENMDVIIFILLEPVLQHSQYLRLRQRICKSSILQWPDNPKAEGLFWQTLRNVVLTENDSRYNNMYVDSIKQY

Structure (SMILES) | IC50 (human TLR7) | IC50 (human TLR8) | IC50 (human TLR9)
Cc1cc(-c2[nH]c3cc(F)c(C4CCN(CCS(C)(=O)=O)CC4)nc3c2C(C)C)cn2ncnc12 [Example 582] | 0.99 nM | 12 nM | 7460 nM
COc1cc(-c2[nH]c3cc(F)c(C4CCN(CC(=O)N(C)C)CC4)nc3c2C(C)C)cn2ncnc12 [Example 583] | 0.32 nM | 5.1 nM | 1550 nM
COc1cc(-c2[nH]c3cc(C)c(C4CCN(CC(=O)N(C)C)CC4)nc3c2C(C)C)cn2ncnc12 [Example 584] | 0.24 nM | 29 nM | 2010 nM
Cc1cc(-c2[nH]c3cc(F)c(C4CCN(C(=O)CN(C)C)CC4)nc3c2C(C)C)cn2ncnc12 [Example 585] | 0.46 nM | 8.6 nM | 1840 nM
Cc1cc2[nH]c(-c3cc(C)c4ncnn4c3)c(C(C)C)c2nc1C1CCN(C(=O)CN(C)C)CC1 [Example 586] | 0.75 nM | 98 nM | 2900 nM
COc1cc(-c2[nH]c3cc(C)c(C4CCN(CC(C)(C)O)CC4)nc3c2C(C)C)cn2ncnc12 [Example 587] | 0.31 nM | 27 nM | 1410 nM
Cc1cc(-c2[nH]c3cc(F)c(C4CCN(C5COC5)CC4)nc3c2C(C)C)cn2ncnc12 [Example 588] | 2.3 nM | 42 nM | 16100 nM
COc1cc(-c2[nH]c3cc(C)c(C4CCN(C5CCOCC5)CC4)nc3c2C(C)C)cn2ncnc12 [Example 589] | 0.25 nM | 62 nM | 1060 nM
COc1cc(-c2[nH]c3ccc(OCC4CCN(C)CC4)nc3c2C(C)C)cn2ncnc12 [Example 590, 6-(3-isopropyl-5-((1-methylpiperidin-4-yl)methoxy)-1H-pyrrolo[3,2-b]pyridin-2-yl)-8-methoxy-[1,2,4]triazolo[1,5-a]pyridine] | 3 nM | 4.7 nM | 3550 nM
COc1cc(-c2[nH]c3ccc(OCC4CCN(C5CCOCC5)CC4)nc3c2C(C)C)cn2ncnc12 [Example 591, 6-(3-isopropyl-5-((1-(tetrahydro-2H-pyran-4-yl)piperidin-4-yl)methoxy)-1H-pyrrolo[3,2-b]pyridin-2-yl)-8-methoxy-[1,2,4]triazolo[1,5-a]pyridine] | 4.8 nM | 7.7 nM | 2850 nM
COc1cc(-c2[nH]c3ccc(OCC4CN(C(C)C)C4)nc3c2C(C)C)cn2ncnc12 [Example 592, 6-(3-isopropyl-5-((1-isopropylazetidin-3-yl)methoxy)-1H-pyrrolo[3,2-b]pyridin-2-yl)-8-methoxy-[1,2,4]triazolo[1,5-a]pyridine] | 2.9 nM | 7.4 nM | 2240 nM
CCCN1CCC(Oc2ccc3[nH]c(-c4cc(OC)c5ncnn5c4)c(C(C)C)c3n2)CC1 [Example 593, 6-(3-isopropyl-5-((1-propylpiperidin-4-yl)oxy)-1H-pyrrolo[3,2-b]pyridin-2-yl)-8-methoxy-[1,2,4]triazolo[1,5-a]pyridine] | 1.4 nM | 2.6 nM | 974 nM
Cc1cc(-c2[nH]c3ccc(OC4CCN(C)CC4)nc3c2C(C)C)cn2ncnc12 [Example 594, 6-(3-isopropyl-5-((1-methylpiperidin-4-yl)oxy)-1H-pyrrolo[3,2-b]pyridin-2-yl)-8-methyl-[1,2,4]triazolo[1,5-a]pyridine] | 3.9 nM | 16 nM | 7910 nM
COc1cc(-c2[nH]c3ccc(OC4CN(C5CCOCC5)C4)nc3c2C(C)C)cn2ncnc12 [Example 595, 6-(3-isopropyl-5-((1-(tetrahydro-2H-pyran-4-yl)azetidin-3-yl)oxy)-1H-pyrrolo[3,2-b]pyridin-2-yl)-8-methoxy-[1,2,4]triazolo[1,5-a]pyridine] | 122 nM | > 3120 nM | 10900 nM
COc1cc(-c2[nH]c3ccc(OC4CN(C)C4)nc3c2C(C)C)cn2ncnc12 [Example 596, 6-(3-isopropyl-5-((1-methylazetidin-3-yl)oxy)-1H-pyrrolo[3,2-b]pyridin-2-yl)-8-methoxy-[1,2,4]triazolo[1,5-a]pyridine] | 13 nM | 67 nM | 3200 nM
COc1cc(-c2[nH]c3ccc(OCC4CCN(CC(C)(C)O)CC4)nc3c2C(C)C)cn2ncnc12 [Example 597, 1-(4-(((3-isopropyl-2-(8-methoxy-[1,2,4]triazolo[1,5-a]pyridin-6-yl)-1H-pyrrolo[3,2-b]pyridin-5-yl)oxy)methyl)piperidin-1-yl)-2-methylpropan-2-ol] | 1.3 nM | 1.2 nM | 918 nM
COc1cc(-c2[nH]c3ccc(OCC4CCN(C(C)C)CC4)nc3c2C(C)C)cn2ncnc12 [Example 598, 6-(3-isopropyl-5-((1-isopropylpiperidin-4-yl)methoxy)-1H-pyrrolo[3,2-b]pyridin-2-yl)-8-methoxy-[1,2,4]triazolo[1,5-a]pyridine] | 0.81 nM | 3.1 nM | 949 nM
COc1cc(-c2[nH]c3ccc(OCC4CN(CC(C)(C)O)C4)nc3c2C(C)C)cn2ncnc12 [Example 599] | 2.7 nM | 4.8 nM | 3050 nM
COc1cc(-c2[nH]c3ccc(OC4CCN(C)CC4)nc3c2C(C)C)cn2ncnc12 [Example 600, 6-(3-isopropyl-5-((1-methylpiperidin-4-yl)oxy)-1H-pyrrolo[3,2-b]pyridin-2-yl)-8-methoxy-[1,2,4]triazolo[1,5-a]pyridine] | 0.75 nM | 6.2 nM | 2050 nM
COc1ccc2[nH]c(-c3cc(OC)c4ncnn4c3)c(C(C)C)c2n1 [Example 601, 6-(3-isopropyl-5-methoxy-1H-pyrrolo[3,2-b]pyridin-2-yl)-8-methoxy-[1,2,4]triazolo[1,5-a] pyridine] | 46 nM | 46 nM | > 50000 nM
COc1cc(-c2[nH]c3ccc(OCC4CCN(CC(=O)N(C)C)CC4)nc3c2C(C)C)cn2ncnc12 [Example 602, 2-(4-(((3-isopropyl-2-(8-methoxy-[1,2,4]triazolo[1,5-a]pyridin-6-yl)-1H-pyrrolo[3,2-b]pyridin-5-yl)oxy)methyl)piperidin-1-yl)-N,N-dimethylacetamide] | 1.2 nM | 6.8 nM | 1430 nM
COc1cc(-c2[nH]c3ccc(OC4CCN(C(C)C)CC4)nc3c2C(C)C)cn2ncnc12 [Example 603, 6-(3-isopropyl-5-((1-isopropylpiperidin-4-yl)oxy)-1H-pyrrolo[3,2-b]pyridin-2-yl)-8-methoxy-[1,2,4]triazolo[1,5-a]pyridine] | 1.5 nM | 5.2 nM | 1190 nM
COc1cc(-c2[nH]c3ccc(OCC4CCN(CCS(C)(=O)=O)CC4)nc3c2C(C)C)cn2ncnc12 [Example 604, 6-(3-isopropyl-5-((1-(2-(methylsulfonyl)ethyl)piperidin-4-yl)methoxy)-1H-pyrrolo[3,2-b]pyridin-2-yl)-8-methoxy-[1,2,4]triazolo[1,5-a]pyridine] | 2.8 nM | 2.5 nM | 5910 nM
CCCN1CCC(COc2ccc3[nH]c(-c4cc(OC)c5ncnn5c4)c(C(C)C)c3n2)CC1 [Example 606, 6-(3-isopropyl-5-((1-propylpiperidin-4-yl)methoxy)-1H-pyrrolo[3,2-b]pyridin-2-yl)-8-methoxy-[1,2,4]triazolo[1,5-a]pyridine] | 2.3 nM | 3.9 nM | 1710 nM
COc1cc(-c2[nH]c3ccc(OC4CCN(C5CCOCC5)CC4)nc3c2C(C)C)cn2ncnc12 [Example 607, 6-(3-isopropyl-5-((1-(tetrahydro-2H-pyran-4-yl)piperidin-4-yl)oxy)-1H-pyrrolo[3,2-b]pyridin-2-yl)-8-methoxy-[1,2,4]triazolo[1,5-a]pyridine] | 2.1 nM | 2.6 nM | 1140 nM
COc1cc(-c2[nH]c3ccc(OCC4CN(C)C4)nc3c2C(C)C)cn2ncnc12 [Example 608, 6-(3-isopropyl-5-((1-methylazetidin-3-yl)methoxy)-1H-pyrrolo[3,2-b]pyridin-2-yl)-8-methoxy-[1,2,4]triazolo[1,5-a]pyridine] | 1.1 nM | 6.1 nM | 1710 nM
COc1cc(-c2[nH]c3ccc(OC4CCN(CC(=O)N(C)C)CC4)nc3c2C(C)C)cn2ncnc12 [Example 609, 2-(4-((3-isopropyl-2-(8-methoxy-[1,2,4]triazolo[1,5-a]pyridin-6-yl)-1H-pyrrolo[3,2-b]pyridin-5-yl)oxy)piperidin-1-yl)-N,N-dimethylacetamide] | 2.6 nM | 23 nM | 2720 nM
COc1cc(-c2[nH]c3ccc(OC4CCC(N(C)C)CC4)nc3c2C(C)C)cn2ncnc12 (stereo not drawn) [Example 610, 4-((3-isopropyl-2-(8-methoxy-[1,2,4]triazolo[1,5-a]pyridin-6-yl)-1H-pyrrolo[3,2-b]pyridin-5-yl)oxy)-N,N-dimethylcyclohexan-1-amine] | 1.5 nM | 14 nM | 1770 nM
CCCN(CCC)C1CCC(Oc2ccc3[nH]c(-c4cc(OC)c5ncnn5c4)c(C(C)C)c3n2)CC1 (stereo not drawn) [Example 611, 4-((3-isopropyl-2-(8-methoxy-[1,2,4]triazolo[1,5-a]pyridin-6-yl)-1H-pyrrolo[3,2-b]pyridin-5-yl)oxy)-N,N-dipropylcyclohexan-1-amine] | 8.4 nM | 17 nM | 1930 nM
COc1cc(-c2[nH]c3ccc(OC4CN(C(C)C)C4)nc3c2C(C)C)cn2ncnc12 [Example 612, 6-(3-isopropyl-5-((1-isopropylazetidin-3-yl)oxy)-1H-pyrrolo[3,2-b]pyridin-2-yl)-8-methoxy-[1,2,4]triazolo[1,5-a]pyridine] | 13 nM | 56 nM | 3930 nM
